Measurements taken from PMC12717099, “Peptidoglycan recruitment by a penicillin binding protein” (Nature Communications, 2025).

What was measured:
[1] = tested on: E. faecium D344SRF pCWR624Δpbp5_pbp5_V3; experiment: Disk diffusion assay, pbp5_V3; format: cell-based, Enterococcus faecium; details: strain pbp5_V3 (loop 625-631); 37 °C, 24 h; n=3
Protocol: (§1) The synthetic genes were purchased from GeneWiz (South Plainfield, NJ). The ribosome binding site sequence AGGAGG (Shine-Dalgarno), and a string of five A’s followed by the sequence […], that corresponds to the first 15 bp found in pbp5 from E. faecium C68 were added upstream of the START codon. The terminator sequence […] was added downstream of the STOP codon. BamHI restriction sites were added to the flanking 5′ and 3′ ends. The synthetic genes were inserted into the vector pCWR624Δpbp5. This vector was derived from pCWR624[10], in which the pbp5 gene from D366 was excised by digestion with BamHI followed by re-ligation of the vector, allowing subsequent insertion of modified synthetic pbp5s into the BamHI site downstream of ftsWEfm and psr from E. faecium C68[10]. The synthetic genes were inserted in a BamHI site located downstream of psr. The proper orientation was confirmed by PCR amplification using the forward primer OR_pbp5_FOR_1 (5′-[…]-3′) and the reverse primer OR_pbp5_REV_1 (5′-[…]-3′). Plasmids were sequence verified for the specific binding site mutations. The resulting constructions were electroporated into the natural pbp5(-) mutant E. faecium D344SRF with a selection on brain heart infusion agar (BHI) plates containing kanamycin (1500 µg/ml).
(§2) E. faecium strains were streaked fresh from −80 °C stored glycerol stocks onto brain heart infusion (BHI) agar plates and incubated for 18 h at 37 °C. Strains harboring the plasmid derivatives were grown under antibiotic pressure on agar plates containing kanamycin at 1500 µg/ml. A single colony was inoculated into BHI or BHI-kanamycin (1500 µg/ml) for overnight cultures (18 h).
(§3) Antibiotic disks used were manufactured by BD BBL^TM. Disk diffusion assays were performed according to the Clinical and Laboratory Standards Institute (CLSI) guidance. Overnight cultures were inoculated into 3 ml of BHI or BHI-kanamycin (1500 µg/ml) broth with a dilution of 1:100 and incubated until an OD600 of ~0.5 was reached. […] The plates were incubated at 37 °C and the zones of inhibition were measured after 24 h. […]

[2] = tested on: E. faecium D344SRF pCWR624Δpbp5 (empty plasmid); experiment: Disk diffusion assay, pCWR624Δpbp5; format: cell-based, Enterococcus faecium; details: strain pCWR624Δpbp5; 37 °C, 24 h; n=3
Protocol: as §1, §2, §3

PBP5:ceftaroline complex = experiment: 1D 1H STD NMR of SP2 with PBP5:ceftaroline; format: binding, Enterococcus faecium; details: for STD amplification factor: ceftaroline-saturated PBP5, 2 s saturation
Text: Total saturation time for STD measurements was 2 s.
Overlapped peaks were completely excluded from the analysis.

PBP5 (PBP5_37-678) = experiment: NMR chemical shift perturbation titration (2D [1H,15N] TROSY, 2D [1H,13C] ILV methyl HMQC) of stem peptides / PG into PBP5; format: binding, Enterococcus faecium; details: NH CSP titration up to 1:80 PBP5:SP1, not saturated: KD overestimated (upper bound); 10 mM MES pH 5.8, 25 mM NaCl, 308 K; read-out: KD, mean±std of residue-specific values
Protocol: Data was processed using Topspin 4.1.4 (Bruker) and analyzed using NMRFAM-SPARKY 1.3 and Poky (build number 20240829)[20],[21]. The sequence-specific backbone assignment of PBP5 is publicly available at BMRBID 51690.
SPs (SP1 to SP7) were titrated into 0.5 mM (^2H,^15N)-labeled and 0.1 mM (^2H,^15N)/^13C ILV labeled PBP5 at molar ratios of 0:1, 5:1, 10:1, 20:1, 40:1, 60:1, and 80:1 (stem peptide/SP:PBP5; molar ratios). 2D [^1H,^15N] TROSY or 2D [^1H,^13C] HMQC spectra were recorded for each titration point. SPs were solubilized in NMR buffer. Chemical shift perturbations (Δδ) between PBP5 and SP bound PBP5 spectra were calculated using Eq. 1,1 Δδppm=ΔδH^2+ΔδX/Y^2 where, X is ^15N or ^13C and Y is the constant i.e., 10 for ^15N and 4 for ^13C.
Residues with significant CSPs were identified by calculating the standard deviation of all CSPs (σ), then excluding any CSPs larger than average+2σ, recalculating σ as a new corrected σ0, and then repetitively removing CSPs above 2σ0 until no additional CSPs can be removed. CSPs above ≥2σ2 was the statistical threshold for ^1H/^15N backbone CSP analysis and ≥2xσ1 for ^1H/^13C methyl ILV data for the interaction of SP1 with PBP5. The same threshold values were used for all other peptides to allow for direct comparison with the SP1/PBP5 interaction. The identical significance analysis was also performed for PenG/ceftaroline saturated PBP5 (1:8 molar ratio of PBP5 to β-lactam antibiotics was used to ensure saturation of an extended time period needed for the SP titrations) SP interaction studies; CSPs above ≥2σ3 was the statistical threshold for ^1H/^15N backbone CSP analysis and ≥2xσ2 for ^1H/^13C methyl ILV data to identify all residues with a statistically significant change in its chemical shift upon SP interaction.
Residue specific KD values were calculated by using Eq. 2[23],2 CSPobs=CSPmax/2PP+S+KD−P+S+KD^2−4[S][P] where P and S are the concentration of PBP5 and SP1, respectively. CSPobs is the experimentally observed chemical shift value and CSPmax is the largest experimentally observed chemical shift value of the residue. […] The lack of saturation was due to the limited amount of available SP peptide due to their difficult synthesis. Residues used for KD calculation were common residues with statistically significant CSPs in the interaction studies of SP1 and SP2 with PBP5 at a 1:80 ratio.

CO/N=C(\C(=O)N[C@@H]1C(=O)N2C(C(=O)O)=C(CSc3nc(=O)c(=O)[nH]n3C)CS[C@H]12)c1csc(N)n1 [Ceftriaxone, ceftriaxone]
Zone Size (mm) [Range] [1]: 28 [26-28] mm
Zone Size (mm) [Range] [2]: 24 [22-28] mm

D-Lac-L-Ala-D-iGln-L-Lys(D-iAsn) [SP2]
STD amplification factor, ref to SP1 (fraction) (PBP5:ceftaroline complex; 1H DLacβ): 0.3324
STD, ref to SP1 (percent) (PBP5:ceftaroline complex; 1H DLacβ): 33.2419
STD amplification factor (PBP5:ceftaroline complex; 1H DLacβ): 8.945
STD amplification factor, ref to SP1 (fraction) (PBP5:ceftaroline complex; 1H DQ2β (first listed)): 0.6862
STD, ref to SP1 (percent) (PBP5:ceftaroline complex; 1H DQ2β (first listed)): 68.622
STD amplification factor (PBP5:ceftaroline complex; 1H DQ2β (first listed)): 18.4651
STD amplification factor, ref to SP1 (fraction) (PBP5:ceftaroline complex; 1H DQ2β (second listed)): 0.9243
STD, ref to SP1 (percent) (PBP5:ceftaroline complex; 1H DQ2β (second listed)): 92.4275
STD amplification factor (PBP5:ceftaroline complex; 1H DQ2β (second listed)): 24.8707
STD amplification factor, ref to SP1 (fraction) (PBP5:ceftaroline complex; 1H DQ2γ): 0.3051
STD, ref to SP1 (percent) (PBP5:ceftaroline complex; 1H DQ2γ): 30.515
STD amplification factor (PBP5:ceftaroline complex; 1H DQ2γ): 8.211
STD amplification factor, ref to SP1 (fraction) (PBP5:ceftaroline complex; 1H K3α): 0.5095
STD, ref to SP1 (percent) (PBP5:ceftaroline complex; 1H K3α): 50.9537
STD amplification factor (PBP5:ceftaroline complex; 1H K3α): 13.7108
STD amplification factor, ref to SP1 (fraction) (PBP5:ceftaroline complex; 1H K3β): 1.007
STD, ref to SP1 (percent) (PBP5:ceftaroline complex; 1H K3β): 100.738
STD amplification factor (PBP5:ceftaroline complex; 1H K3β): 27.1069
STD amplification factor, ref to SP1 (fraction) (PBP5:ceftaroline complex; 1H K3γ): 0.5588
STD, ref to SP1 (percent) (PBP5:ceftaroline complex; 1H K3γ): 55.8765
STD amplification factor (PBP5:ceftaroline complex; 1H K3γ): 15.0355
STD amplification factor, ref to SP1 (fraction) (PBP5:ceftaroline complex; 1H K3δ): 0.7209
STD, ref to SP1 (percent) (PBP5:ceftaroline complex; 1H K3δ): 72.0884
STD amplification factor (PBP5:ceftaroline complex; 1H K3δ): 19.3978
STD amplification factor, ref to SP1 (fraction) (PBP5:ceftaroline complex; 1H K3ε): 0.1435
STD, ref to SP1 (percent) (PBP5:ceftaroline complex; 1H K3ε): 14.3544
STD amplification factor (PBP5:ceftaroline complex; 1H K3ε): 3.863
STD amplification factor, ref to SP1 (fraction) (PBP5:ceftaroline complex; 1H LA1α): 0.3824
STD, ref to SP1 (percent) (PBP5:ceftaroline complex; 1H LA1α): 38.2438
STD amplification factor (PBP5:ceftaroline complex; 1H LA1α): 10.2908
STD amplification factor, ref to SP1 (fraction) (PBP5:ceftaroline complex; 1H LA1β): 0.3611
STD, ref to SP1 (percent) (PBP5:ceftaroline complex; 1H LA1β): 36.1111
STD amplification factor (PBP5:ceftaroline complex; 1H LA1β): 9.717
STD amplification factor, ref to SP1 (fraction) (PBP5:ceftaroline complex; 1H iNα,DQ2α): 0.2432
STD, ref to SP1 (percent) (PBP5:ceftaroline complex; 1H iNα,DQ2α): 24.3189
STD amplification factor (PBP5:ceftaroline complex; 1H iNα,DQ2α): 6.544
STD amplification factor, ref to SP1 (fraction) (PBP5:ceftaroline complex; 1H iNβ): 0.3137
STD, ref to SP1 (percent) (PBP5:ceftaroline complex; 1H iNβ): 31.3676
STD amplification factor (PBP5:ceftaroline complex; 1H iNβ): 8.441

D-Lac-L-Ala-D-iGln-L-Lys(D-iAsn)-D-Ala-D-Ala [SP1]
Kd (PBP5 (PBP5_37-678)): ~4 mM
